Source: US20210395653A1, “COMPOSITIONS FOR TREATMENT AND METHODS FOR MAKING AND USING THE SAME” (ASP Global Manufacturing GmbH, priority 2018, published 2021)

Assay: Solubility of added 5% CHG in commercial detergent compositions
Format: physicochemical

N=C(NCCCCCCNC(=N)NC(=N)Nc1ccc(Cl)cc1)NC(=N)Nc1ccc(Cl)cc1.O=C(O)[C@H](O)[C@@H](O)[C@H](O)[C@H](O)CO.O=C(O)[C@H](O)[C@@H](O)[C@H](O)[C@H](O)CO [CHG, chlorhexidine gluconate]
insoluble: Solubility of CHG in detergent composition C2 (5% CHG added to C2) | Solubility of CHG in detergent composition C3 (5% CHG added to C3) | Solubility of CHG in detergent composition C6 (5% CHG added to C6)
